# Counter-ions that a name gives are not always drawn. Like-named read-outs stand apart in the source and are kept apart here.
# Key:
# Type in all cases: cell-based
# [1] = system: Escherichia coli (E. coli—ATCC #8739); assay: Synergy test, microtiter plate high resolution MIC assay, bacterium in M9GY medium; parameters: key to SI (synergy index): SI = Qa/QA + Qb/QB; >1 antagonism, lower SI = greater synergy; Qa (First Component A) / Qb (Second Component B): unit: ppm
# Description: (§1) When the sum of Qa/QA and Qb/QB is greater than one, antagonism is indicated. […] The lower the SI, the greater the synergy shown by that particular mixture. The minimum inhibitory concentration (MIC) of a microbicide is the lowest concentration tested under a specific set of conditions that prevents the growth of added microorganisms.
# (§2) Synergy tests were conducted using standard microtiter plate assays with media designed for optimal growth of the test microorganism. Minimal salt medium supplemented with 0.2% glucose and 0.1% yeast extract (M9GY medium) was used for testing bacteria; Potato Dextrose Broth (PDB medium) was used for testing yeast and mold. In this method, a wide range of combinations of microbicides and other personal care raw materials was tested by conducting high resolution MIC assays in the presence of various concentrations of BBIT or MBIT. High resolution MICs were determined by adding varying amounts of microbicide to one column of a microtitre plate and doing subsequent […] dilutions using an automated liquid handling system to obtain a series of endpoints ranging from 2 ppm to 10,000 ppm active ingredient.
# (§3) The bacteria were used at a concentration of about 5 ×10^6 bacteria per mL and the yeast and mold at 5×10^5 fungi per mL. These microorganisms are representative of natural contaminants in many consumer and industrial applications. […] (yeast and mold) or 30° C. (bacteria).
# (§4) In each test, First Component (A) was BBIT and the Second Component (B) was the other commercial microbicide.
# (§5) In each test, First Component (A) was MBIT and the Second Component (B) was the other commercial microbicide.
# [2] = system: Aspergillus niger (A. niger—ATCC 16404); assay: Synergy test, microtiter plate high resolution MIC assay, mold in PDB medium; parameters: key to SI (synergy index): SI = Qa/QA + Qb/QB; >1 antagonism, lower SI = greater synergy; Qb (Second Component B) / Qa (First Component A): unit: ppm
# Description: as §1, §2, §3, §4, §5
# [3] = system: Candida albicans (C. albicans—ATCC 10231); assay: Synergy test, microtiter plate high resolution MIC assay, yeast in PDB medium; parameters: key to SI (synergy index): SI = Qa/QA + Qb/QB; >1 antagonism, lower SI = greater synergy; Qb (Second Component B) / Qa (First Component A): unit: ppm
# Description: as §1, §2, §3, §4, §5
# [4] = C. albicans 10231, PDB, 24 hours
# [5] = E. coli 8739, M9GY, 24 hours, alone where Qa = 0, otherwise in the mixture
# [6] = A=MBIT, B=Benzalkonium chloride (Hyamine 3500), E. coli 8739 - M9GY, 24 hours
# [7] = A=MBIT, B=Benzalkonium chloride (Hyamine 3500), A. niger 16404 - PDB, 4 days
# [8] = A=MBIT, B=Benzalkonium chloride (Hyamine 3500), C. albicans 10231 - PDB, 24 hours
molecule,measurement,setting,value
"ClC=CC[N+]12CN3CN(CN(C3)C1)C2.[Cl-] [Quaternium-15, 1-(3-chloroallyl)-3,5,7-triaza-1-azoniaadamantane chloride]",SI (synergy index),"[1]; E. coli 8739, M9GY, 24 hours",1.00
same,SI,"[1]; E. coli 8739 - M9GY, 72 hours, BBIT with Quaternium-15",1.00
same,MIC,"[1]; Escherichia coli, ATCC8739, 24 h, read-out: Qb (concentration of second component producing the end point, MIC)",50 µg/mL
same,SI (synergy index),"[2]; A. niger 16404, PDB, 3 days",1.00
same,SI,"[2]; A. niger 16404 - PDB, 4 days, BBIT with Quaternium-15",1.00
same,MIC,"[2]; Aspergillus niger, ATCC16404, 72 h, read-out: Qb (concentration of second component producing the end point, MIC)",3000 µg/mL
same,SI (synergy index),[3]; [4],1.00
same,SI,"[3]; C. albicans 10231 - PDB, 24 hours, BBIT with Quaternium-15",1.00
same,MIC,"[3]; Candida albicans, ATCC10231, 24 h, read-out: Qb (concentration of second component producing the end point, MIC)",500 µg/mL
O=C([O-])c1ccccc1.[Na+] [Sodium benzoate],SI (synergy index),"[1]; E. coli 8739, M9GY, 24 hours",1.00
same,"Qb (concentration of second component producing the end point, MIC)",[1]; [5],10000 ppm
same,SI,"[1]; E. coli 8739 - M9GY, 24 hours, BBIT with Sodium benzoate",1.00
same,SI (synergy index),"[2]; A. niger 16404, PDB, 7 days",1.00
same,"Qb (concentration of second component producing the end point, MIC)","[2]; A. niger 16404, PDB, 7 days, alone where Qa = 0, otherwise in the mixture",10000 ppm
same,SI,"[2]; A. niger 16404 - PDB, 7 days, BBIT with Sodium benzoate",1.00
same,SI (synergy index),"[3]; C. albicans 10231, PDB, 48 hours",1.00
same,"Qb (concentration of second component producing the end point, MIC)","[3]; C. albicans 10231, PDB, 48 hours, alone where Qa = 0, otherwise in the mixture",2000 ppm
same,SI,"[3]; C. albicans 10231 - PDB, 48 hours, BBIT with Sodium benzoate",1.00
O=C([O-])CC(O)(CC(=O)[O-])C(=O)[O-].[Na+].[Na+].[Na+] [Sodium citrate],Qb (Second Component B),[1],20000
same,"Qb (concentration of second component producing the end point, MIC)",[1],20000 ppm
same,Qb (Second Component B),[2],10000
same,"Qb (concentration of second component producing the end point, MIC)",[2],10000 ppm
same,Qb (Second Component B),[3],10000
same,"Qb (concentration of second component producing the end point, MIC)",[3],10000 ppm
"CC(=O)C1C(=O)C=C(C)OC1=O (stereo not drawn) [dehydroacetic acid, sodium salt]",SI,"[1]; E. coli 8739 - M9GY, 24 hours, BBIT with SDHA",1.00
same,SI,"[2]; A. niger 16404 - PDB, 7 days, BBIT with SDHA",1.00
same,SI,"[3]; C. albicans 10231 - PDB, 24 hours, BBIT with SDHA",1.00
Benzalkonium chloride,Qb (Second Component B),[1]; [6],10
same,SI (synergy index),[1]; [6],1.00
same,MIC of the component acting alone (QA / QB),"[1]; E. coli 8739, M9GY, 48 hours, 30° C.",3 ppm
same,MIC of the component acting alone (QA / QB),"[2]; A. niger 16404, PDB, 7 days, 25° C.",200 ppm
same,Qb (Second Component B),[2]; [7],200
same,SI (synergy index),[2]; [7],1.00
same,Qb (Second Component B),[3]; [8],60
same,SI (synergy index),[3]; [8],1.00
same,MIC of the component acting alone (QA / QB),"[3]; C. albicans 10231, PDB, 24 hours, 25° C.",60 ppm
Hexylene glycol,SI (synergy index),"[1]; E. coli 8739, M9GY, 24 hours",1.00
same,"Qb (concentration of second component producing the end point, MIC)",[1]; [5],20000 ppm
same,SI,"[1]; E. coli 8739 - M9GY, 24 hours, BBIT + hexylene glycol",1.00
same,Qb (Second Component B = Hexylene glycol),"[1]; E. coli 8739 - M9GY, 24 hours, hexylene glycol alone (Qa 0) or in mixture with BBIT",20000
same,SI (synergy index),"[2]; A. niger 16404, PDB, 3 days",1.00
same,"Qb (concentration of second component producing the end point, MIC)","[2]; A. niger 16404, PDB, 3 days, alone where Qa = 0, otherwise in the mixture",20000 ppm
same,SI,"[2]; A. niger 16404 - PDB, 3 days, BBIT + hexylene glycol",1.00
same,Qb (Second Component B = Hexylene glycol),"[2]; A. niger 16404 - PDB, 3 days, hexylene glycol alone (Qa 0) or in mixture with BBIT",20000
same,SI (synergy index),[3]; [4],1.00
same,"Qb (concentration of second component producing the end point, MIC)","[3]; C. albicans 10231, PDB, 24 hours, alone where Qa = 0, otherwise in the mixture",20000 ppm
same,SI,"[3]; C. albicans 10231 - PDB, 24 hours, BBIT + hexylene glycol",1.00
same,Qb (Second Component B = Hexylene glycol),"[3]; C. albicans 10231 - PDB, 24 hours, hexylene glycol alone (Qa 0) or in mixture with BBIT",20000

# Source: patent publication US8741940B2, “Microbicidal composition” (Rohm and Haas Company, priority 2005, dated 2014)
